In ChEMBL document CHEMBL6134781, “In vitro identification of oridonin hybrids as potential anti-TNBC agents inducing cell cycle arrest and apoptosis by regulation of p21, γH2AX and cleaved PARP” (RSC Med Chem, 2024):

Assays:
[1] = test system: MDA-MB-231; assay: Induction of cell cycle arrest in human MDA-MB-231 cells assessed as accumulation at G2/M phase incubated for 16 hrs by PI staining based flow cytometry; assay type: functional; conditions: dose 1-3 µM
[2] = test system: MDA-MB-231; assay: Induction of apoptosis in human MDA-MB-231 cells assessed as early apoptotic cells at 3 uM incubated for 16 hrs by Annexin V-FITC/PI staining based flow cytometry (reference value: 1.94 %); assay type: functional
[3] = test system: HCC1806; assay: Induction of apoptosis in human HCC1806 cells assessed as increase in cleaved PARP-1 level incubated for 24 hrs by Western blot analysis; assay type: functional, cell-based; conditions: dose 1-3 µM
[4] = test system: HCC1806; assay: Induction of cell cycle arrest in human HCC1806 cells assessed as decrease in accumulation at S phase incubated for 16 hrs by PI staining based flow cytometry; assay type: functional; conditions: dose 1-3 µM
[5] = test system: MDA-MB-468; assay: Induction of DNA damage in human MDA-MB-468 cells assessed as increase in gamma-H2AX level incubated for 24 hrs by Western blot analysis; assay type: functional, cell-based; conditions: dose 1-3 µM
[6] = test system: MDA-MB-231; assay: Induction of apoptosis in human MDA-MB-231 cells assessed as viable cells at 3 uM incubated for 16 hrs by Annexin V-FITC/PI staining based flow cytometry (reference value: 89.5 %); assay type: functional; conditions: read-out: Activity
[7] = test system: HCC1806; assay: Induction of apoptosis in human HCC1806 cells assessed as early apoptotic cells at 3 uM incubated for 24 hrs by Annexin V-FITC/PI staining based flow cytometry (reference value: 3.06 %); assay type: functional
[8] = test system: HCC1937; assay: Induction of DNA damage in human HCC1937 cells assessed as increase in gamma-H2AX level incubated for 24 hrs by Western blot analysis; assay type: functional, cell-based; conditions: dose 1-3 µM
[9] = test system: MDA-MB-468; assay: Effect on p21 expression in human MDA-MB-468 cells at 1 to 3 uM incubated for 16 hrs by Western blot analysis; assay type: functional, cell-based; conditions: dose 1-3 µM
[10] = test system: HCC1806; assay: Induction of apoptosis in human HCC1806 cells assessed as early apoptotic cells at 1 uM incubated for 24 hrs by Annexin V-FITC/PI staining based flow cytometry (reference value: 3.06 %); assay type: functional
[11] = test system: MDA-MB-468; assay: Induction of apoptosis in human MDA-MB-468 cells assessed as late apoptotic cells at 3 uM incubated for 24 hrs by Annexin V-FITC/PI staining based flow cytometry (reference value: 3.84 %); assay type: functional
[12] = test system: MDA-MB-468; assay: Induction of apoptosis in human MDA-MB-468 cells assessed as viable cells at 1 uM incubated for 24 hrs by Annexin V-FITC/PI staining based flow cytometry (reference value: 88.9 %); assay type: functional; conditions: read-out: Activity
[13] = test system: MDA-MB-231; assay: Induction of apoptosis in human MDA-MB-231 cells assessed as increase in cleaved PARP-1 level incubated for 16 hrs by Western blot analysis; assay type: functional, cell-based; conditions: dose 1-3 µM
[14] = test system: MDA-MB-468; assay: Induction of cell cycle arrest in human MDA-MB-468 cells assessed as decrease in accumulation at S phase incubated for 16 hrs by PI staining based flow cytometry; assay type: functional; conditions: dose 1-3 µM
[15] = test system: MDA-MB-468; assay: Induction of apoptosis in human MDA-MB-468 cells assessed as viable cells at 3 uM incubated for 24 hrs by Annexin V-FITC/PI staining based flow cytometry (reference value: 88.9 %); assay type: functional; conditions: read-out: Activity
[16] = test system: MDA-MB-468; assay: Induction of apoptosis in human MDA-MB-468 cells assessed as early apoptotic cells at 1 uM incubated for 24 hrs by Annexin V-FITC/PI staining based flow cytometry (reference value: 3.17 %); assay type: functional
[17] = test system: HCC1937; assay: Induction of apoptosis in human HCC1937 cells assessed as necrotic cells at 1 uM incubated for 24 hrs by Annexin V-FITC/PI staining based flow cytometry (reference value: 0.58 %); assay type: functional
[18] = test system: HCC1806; assay: Induction of apoptosis in human HCC1806 cells assessed as viable cells at 3 uM incubated for 24 hrs by Annexin V-FITC/PI staining based flow cytometry (reference value: 95.4 %); assay type: functional; conditions: read-out: Activity
[19] = test system: MDA-MB-231; assay: Induction of apoptosis in human MDA-MB-231 cells assessed as viable cells at 1 uM incubated for 16 hrs by Annexin V-FITC/PI staining based flow cytometry (reference value: 89.5 %); assay type: functional; conditions: read-out: Activity
[20] = test system: HCC1806; assay: Induction of apoptosis in human HCC1806 cells assessed as necrotic cells at 1 uM incubated for 24 hrs by Annexin V-FITC/PI staining based flow cytometry (reference value: 0.049 %); assay type: functional

C=C1C(=O)[C@]23[C@H](OC(=O)C45CC6CC(CC(C6)C4)C5)[C@H]1CC[C@H]2[C@@]12CO[C@]3(O)[C@@H](O)[C@@H]1C(C)(C)CC[C@@H]2O
Activity [1]: Dose-dependent-effect
Activity [2]: 3.51%
Activity [3]: Dose-dependent-effect
Activity [4]: Dose-dependent-effect
Activity [5]: Dose-dependent-effect
viability at 3 µM [6]: 71.6%
Activity [7]: 11%
Activity [8]: Dose-dependent-effect
Activity [9]: No effect
Activity [10]: 4.92%
Activity [11]: 3.22%
viability at 1 µM [12]: 87.5%
Activity [13]: Dose-dependent-effect
Activity [14]: Dose-dependent-effect
viability at 3 µM [15]: 66.3%
Activity [16]: 5.18%
Activity [17]: 0.33%
viability at 3 µM [18]: 74.8%
viability at 1 µM [19]: 93.5%
Activity [20]: 0.088%
